# Columns and labels:
# MCF-10A cells = test: Antiproliferative assay in vitro (SRB); type: cell-based, human; details: Homo sapiens, MCF-10A; 72 h exposure, SRB method; read-out: Average IC50 ± SD, MCF-10A line
# Protocol: Antiproliferative tests were performed on a normal human breast cell line, MCF-10A, and a mouse embryonic fibroblast: Balb/3T3. Both cell lines were obtained from the American Type Culture Collection (Rockville, MD, USA). The cell lines were maintained in the Institute of Immunology and Experimental Therapy, Wroclaw, Poland. MCF-10A cells were cultured in the F-12 nutrient mixture (Gibco, Scotland, UK), supplemented with 5% horse serum (Gibco, Scotland, UK), […] (Vibrio cholerae Pacini), 10 μg/mL of hydrocortisone and 20 ng/mL of human epidermal growth factor (all from Sigma-Aldrich, Chemie GmbH, Steinheim, Germany). Balb/3T3 cells were cultured in Dulbecco medium (Gibco, Darmstadt, Germany) supplemented with 10% fetal bovine serum (Thermo Fisher Scientific, Waltham, MA, USA) and 2 mM l-glutamine (Sigma-Aldrich, St. Louis, MO, USA). All culture media contained antibiotics: 100 U/mL penicillin (Sigma-Aldrich, St. Louis, MO, USA) and 100 µg/mL streptomycin (Polfa-Tarchomin, Warsaw, Poland). Both cell lines were cultured during the entire experiment in a humid atmosphere at 37 °C and 5% CO2. Amistar 250 SC (fungicide) with active compound azoxystrobin was provided by the Institute of Soil Science and Plant Cultivation, National Research Institute in Pulawy, Department of Weed Science and Tillage Systems in Wroclaw, Poland […].
# Twenty-four hours prior to the applications of the tested compounds, MCF-10A and Balb/3T3 cells were plated in 96-well plates at a density of 10^4 cells per well and cultured at 37 °C in a humid atmosphere saturated with 5% CO2 for 24 h. Stock solutions of the compounds were prepared ex tempore for each test by dissolving in DMSO. The cells were also exposed to the reference drugs: cis-platin (Accord, London, UK) (10–0.01 µg/mL) and DMSO (Sigma-Aldrich) (at the concentrations corresponding to those in the tested agent dilutions). The solutions were then diluted in culture medium RPMI 1640 + Opti-MEM (1:1) (both from Gibco, Scotland, UK), supplemented with 2 mM l-glutamine, 5% fetal bovine serum (all from Sigma-Aldrich Chemie GmbH, Steinheim, Germany). An assay was performed after 72 h of exposure to the tested compounds 13, 17, 18, 19, 25, 27, 30, 4-hba, 4-hbah, and 3,4,5-hba (0.5, 5.0, 50, and to 500 µM) and azoxystrobin fungicide (0.05, 0.5, 5.0 and 50 µM). The antiproliferative effect in vitro was determined by the SRB method (sulforhodamine B colorimetric assay). The optical densities of the samples were measured on the Synergy H4 photometer (BioTek Instruments, Winooski, VT, USA) at 540 nm. The results were calculated as 50% inhibitory concentration (IC50), namely the dose of the tested compound inhibiting proliferation of the tested cells by 50% as compared to the untreated control cells, in the Prolab-3 system based on Cheburator 0.4 software using the two-point method. Each test was repeated 3–5 times.
# Cytotoxicity was performed on two normal cell lines: MCF -10A and Balb/3T3, using as controls cis-platin in the concentrations of 0.03 32, 0.3 32, 3.32 and 33.2 µM and azoxystrobin fungicide in the […]
# were tested in the concentrations of 0.5, 5.0, 50, and 500 µM. The relation of compound concentration […]
# Further, a comparison of the influence of each tested concentration in the group of tested compounds on cell lines was illustrated in Figure S130 a (MCF-10A) and b (Balb/T3T).
# Table S4. Cytotoxicity results for compounds 13, 17, 18, 19, 25, 27, and 30 investigated on normal mammalian lines: MCF -10A and B alb/3T3 using Azoxystrobin (fungicide) and cis-platin as reference compounds.
# Cytotoxicity profile presented as proliferation inhibition, % (y -axis) in the function of compound concentration, […]
# Structure MCF-10A Balb/3T3
# Proliferation inhibition [%] […]
# [1] = target: laccase from Trametes versicolor; details: read-out: Laccase inhibition, Ki; cited from earlier work
SMILES,IC50 (MCF-10A cells) [µM],Ki [1] [µM]
O=C(N/N=C/c1cc(O)ccc1O)c1ccc(O)cc1 [compound 13],213 ± 34.1,
COc1cc(/C=N/NC(=O)c2ccc(O)cc2)ccc1O [compound 17],275 ± 41.5,251
CC(C)(C)c1cccc(/C=N/NC(=O)c2ccc(O)cc2)c1O [compound 18],6.41 ± 2.05,24
O=C(N/N=C/c1cccc(-c2ccccc2)c1O)c1ccc(O)cc1 [compound 19],3.44 ± 0.83,25.3
Cc1cc(/C=N/NC(=O)c2ccc(O)cc2)c(O)c(CO)c1 [compound 25],27.5 ± 1.83,≥ 1000
CC(C)(C)c1cc(/C=N/NC(=O)c2ccc(O)cc2)c(O)c(C(C)(C)C)c1 [compound 27],7.73 ± 1.08,17.9
Cc1cc(/C=N/NC(=O)c2ccc(O)cc2)c(O)c(C(C)(C)C)c1 [compound 30],8.85 ± 5.47,26.4
